ChEMBL document CHEMBL1154655, “Curcumin analog cytotoxicity against breast cancer cells: exploitation of a redox-dependent mechanism” (Bioorg Med Chem Lett, 2009)

Columns and labels:
A549 = assay: Inhibition of NF-kappaB nuclear translocation in human A549 cells; assay type: functional, cell-based
MDA-MB-435 = assay: Cytotoxicity against human MDA-MB-435 cells; assay type: functional, cell-based

| IC50 (A549) [nM] | SMILES | IC50 (MDA-MB-435) [nM] |
| --- | --- | --- |
| 1300 | O=C1/C(=C/c2ccccc2F)CNC/C1=C\c1ccccc1F | 1500 |
|  | O=C1/C(=C/c2ccccn2)CNC/C1=C\c1ccccn1 | 1000 |
| 13000 | COc1cc(/C=C/C(=O)CC(=O)/C=C/c2ccc(O)c(OC)c2)ccc1O [CURCUMIN] |  |
